Data from patent publication US20130225583A1, “SUBSTITUTED AMINO-TRIAZOLYL PDE10 INHIBITORS” (priority 2010, published 2013).

Biological target: T1, human PDE10A2 (Homo sapiens, UniProt Q9Y233)
T1 construct: made in house; host or cells: AD293 cells, transiently transfected; The cytosolic supernatant of the lysate served as the enzyme
Assay: PDE10 fluorescence polarization (IMAP FP) inhibition assay
Type: biochemical
Details: apparent inhibition constant; FAM-labeled cAMP 50 nM; lysate of AD293 cells transfected with human PDE10A2; room temperature; read-out: PDE10a Ki
Experimental: The activity of the compounds in accordance with the present invention as PDE10 inhibitors may be readily determined without undue experimentation using a fluorescence polarization (FP) methodology that is well known in the art (Huang, W., et al., J. Biomol Screen, 2002, 7: 215).
In a typical experiment the PDE 10 inhibitory activity of the compounds of the present invention was determined in accordance with the following experimental method. PDE 10A2 was amplified from human fetal brain cDNA (Clontech, Mountain View, Calif.) using a forward primer corresponding to nucleotides 56-77 of human PDE10A2 (Accession No. AF127480, Genbank Identifier 4894716), containing a Kozak consensus sequence, and a reverse primer corresponding to nucleotides 2406-2413 of human PDE10A2 (Accession No. AF127480, Genbank Identifier 4894716). Amplification with Easy-A polymerase (Stratagene, La Jolla, Calif.) was 95° C. for 2 minutes followed by thirty three cycles of 95° C. for 40 seconds, 55° C. for 30 seconds, and 72° C. for 2 minutes 48 seconds. Final extension was 72° C. for 7 minutes. The PCR product was TA cloned into pcDNA3.2-TOPO (Invitrogen, Carlsbad, Calif.) according to standard protocol. AD293 cells with 70-80% confluency were transiently transfected with human PDE10A2/pcDNA3.2-TOPO using Lipofectamine 2000 according to manufacturer specifications (Invitrogen, Carlsbad, Calif.). Cells were harvested 48 hours post-transfection and lysed by sonication (setting 3, 10×5 sec pulses) in a buffer containing 20 mM HEPES, 1 mM EDTA and protease inhibitor cocktail (Roche). Lysate was collected by centrifugation at 75,000×g for 20 minutes. Supernatant containing the cytoplasmic fraction was used for evaluation of PDE10A2 activity. The fluorescence polarization assay for cyclic nucleotide phosphodiesterases was performed using an IMAP® FP kit supplied by Molecular Devices, Sunnyvale, Calif. (product # R8139). IMAP® technology has been applied previously to phosphodiesterase assays (Huang, W., et al., J. Biomol Screen, 2002, 7: 215). Assays were performed at room temperature in 384-well microtiter plates with an incubation volume of 20.2 μL. Solutions of test compounds were prepared in DMSO and serially diluted with DMSO to yield 8 μL of each of 10 solutions differing by 3-fold in concentration, at 32 serial dilutions per plate. 100% inhibition is determined using a known PDE 10 inhibitor, which can be any compound that is present at 5,000 times its Ki value in the assay described as follows, such as papaverine (see Siuciak, et al. Neuropharmacology (2006) 51:386-396; Becker, et al. Behav Brain Res (2008) 186(2):155-60; Threlfell, et al., J Pharmacol Exp Ther (2009) 328(3):785-795), 2-{4-[pyridin-4-yl-1-(2,2,2-trifluoroethyl)-1H-pyrazol-3-yl]phenoxymethyl}quinoline succinic acid or 2-[4-(1-methyl-4-pyridin-4-yl-1H-pyrazol-3-yl)-phenoxymethyl]quinoline succinic acid (see Schmidt, et al. J Pharmacol Exp Ther (2008) 325:681-690; Threlfell, et al., J Pharmacol Exp Ther (2009) 328(3): 785-795). 0% of inhibition is determined by using DMSO (1% final concentrations). A Labcyte Echo 555 (Labcyte, Sunnyvale, Calif.) is used to dispense 200 nL from each well of the titration plate to the 384 well assay plate. A solution of enzyme ( 1/7000 dilution from aliquots; sufficient to produce 20% substrate conversion) and a separate solution of FAM-labeled cAMP PDE from Molecular Devices (product # R7506), at a final concentration of 50 nM are made in the assay buffer (10 mM Tris HCl, pH 7.2, 10 mM MgCl2, 0.05% NaN3 0.01% Tween-20, and 1 mM DTT). The enzyme is added to the assay plates by the addition of 10 μL of enzyme solution to each well, shaken to mix and incubated at room temperature for 60 minutes. The substrate is then added to the assay plates by the addition of 10 μL of substrate solution to each well, shaken to mix, and incubated at room temperature for 60 minutes. […]

T1 sequence (Q9Y233 267-1055): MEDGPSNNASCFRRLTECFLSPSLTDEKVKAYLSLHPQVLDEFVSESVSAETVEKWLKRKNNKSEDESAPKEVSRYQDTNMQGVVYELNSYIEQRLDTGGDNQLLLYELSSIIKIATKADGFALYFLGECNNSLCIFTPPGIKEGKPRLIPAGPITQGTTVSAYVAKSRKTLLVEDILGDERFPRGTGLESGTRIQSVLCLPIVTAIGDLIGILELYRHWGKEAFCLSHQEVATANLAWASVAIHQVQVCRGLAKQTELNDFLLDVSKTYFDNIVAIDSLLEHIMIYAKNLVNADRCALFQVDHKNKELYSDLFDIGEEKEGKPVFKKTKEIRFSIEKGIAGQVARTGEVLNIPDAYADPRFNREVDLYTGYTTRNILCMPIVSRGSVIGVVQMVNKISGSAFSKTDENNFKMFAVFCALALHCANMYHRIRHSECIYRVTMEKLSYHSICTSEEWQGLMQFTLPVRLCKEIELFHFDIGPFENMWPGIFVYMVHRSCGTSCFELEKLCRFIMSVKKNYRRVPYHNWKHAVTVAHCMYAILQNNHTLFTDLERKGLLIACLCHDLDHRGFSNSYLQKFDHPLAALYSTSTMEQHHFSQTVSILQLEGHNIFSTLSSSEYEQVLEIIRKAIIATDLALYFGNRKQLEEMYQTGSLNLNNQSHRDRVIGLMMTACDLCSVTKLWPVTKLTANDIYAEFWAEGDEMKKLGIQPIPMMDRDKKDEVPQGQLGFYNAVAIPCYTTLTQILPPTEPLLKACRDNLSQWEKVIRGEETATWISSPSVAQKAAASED

Structure (SMILES)	Ki
COc1ccc(CNc2nc(Cc3ccc(OC)c(OC)c3)n(-c3ccccc3)n2)cc1 [1-10, 5-(3,4-dimethoxybenzyl)-N-(4-methoxybenzyl)-1-phenyl-1H-1,2,4-triazol-3-amine]	146 nM
COc1ccc(CNc2nc(Cc3ccc(OC)c(OC)c3)n(C)n2)cc1 [1-11, 5-(3,4-dimethoxybenzyl)-N-(4-methoxybenzyl)-1-methyl-1H-1,2,4-triazol-3-amine]	24.8 nM
COc1ccccc1COc1cc(-n2nc(N)nc2Cc2ccc(OC)c(OC)c2)ncn1 [1-35, 5-(3,4-dimethoxybenzyl)-1-(6-(2-methoxybenzyloxy)pyrimidin-4-yl)-1H-1,2,4-triazol-3-amine]	880 nM
COc1ccc(Cc2nc(N)nn2-c2cc(OC3Cc4ccccc4C3)ncn2)cc1OC [1-39, 1-(6-(2,3-dihydro-1H-inden-2-yloxy)pyrimidin-4-yl)-5-(3,4-dimethoxybenzyl)-1H-1,2,4-triazol-3-amine]	970 nM
COc1ccc(Cc2nc(N)nn2-c2cc(OCc3nc4ccccc4[nH]3)ncn2)cc1OC [1-40, 1-(6-((1H-benzo[d]imidazol-2-yl)methoxy)pyrimidin-4-yl)-5-(3,4-dimethoxybenzyl)-1H-1,2,4-triazol-3-amine]	19 nM
COc1ccc(Cc2nc(N)nn2-c2cc(OCc3ccccc3-c3cccs3)ncn2)cc1OC [1-43, 5-(3,4-dimethoxybenzyl)-1-(6-(2-(thiophen-2-yl)benzyloxy)pyrimidin-4-yl)-1H-1,2,4-triazol-3-amine]	19 nM
COc1ccc(Cc2nc(N)nn2-c2cc(OCCN3CCNC3=O)ncn2)cc1OC [1-44, 1-(2-(6-(3-amino-5-(3,4-dimethoxybenzyl)-1H-1,2,4-triazol-1-yl)pyrimidin-4-yloxy)ethyl)imidazolidin-2-one]	18 nM
COc1ccc(Cc2nc(N)nn2-c2cc(=O)n(CCc3ccccn3)cn2)cc1OC [1-47, 6-(3-amino-5-(3,4-dimethoxybenzyl)-1H-1,2,4-triazol-1-yl)-3-(2-(pyridin-2-yl)ethyl)pyrimidin-4(3H)-one]	70 nM
COc1ccc(Cc2nc(N)nn2-c2cc(=O)n(CCN3CCOCC3)cn2)cc1OC [1-48, 6-(3-amino-5-(3,4-dimethoxybenzyl)-1H-1,2,4-triazol-1-yl)-3-(2-morpholinoethyl)pyrimidin-4(3H)-one]	< 3.8 nM
COc1ccc(Cc2nc(N)nn2-c2cc(=O)n(Cc3ccccn3)cn2)cc1OC [1-49, 6-(3-amino-5-(3,4-dimethoxybenzyl)-1H-1,2,4-triazol-1-yl)-3-(pyridin-2-ylmethyl)pyrimidin-4(3H)-one]	< 3.8 nM
COc1ccc(Cc2nc(N)nn2-c2cc(=O)n(Cc3ccccc3C(F)(F)F)cn2)cc1OC [1-50, 6-(3-amino-5-(3,4-dimethoxybenzyl)-1H-1,2,4-triazol-1-yl)-3-(2-(trifluoromethyl)benzyl)pyrimidin-4(3H)-one]	190 nM
COc1ccc(Cc2nc(N)nn2-c2cc(=O)n(CCc3cccs3)cn2)cc1OC [1-51, 6-(3-amino-5-(3,4-dimethoxybenzyl)-1H-1,2,4-triazol-1-yl)-3-(2-(thiophen-2-yl)ethyl)pyrimidin-4(3H)-one]	23 nM
COc1ccc(Cc2nc(N)nn2-c2cc(=O)n(Cc3nc4ccccc4[nH]3)cn2)cc1OC [1-54, 3-((1H-benzo[d]imidazol-2-yl)methyl)-6-(3-amino-5-(3,4-dimethoxybenzyl)-1H-1,2,4-triazol-1-yl)pyrimidin-4(3H)-one]	390 nM
COc1ccc(Cc2nc(N)nn2-c2cc(=O)n(Cc3cnc(N4CCNCC4)cn3)cn2)cc1OC [1-58, 6-(3-amino-5-(3,4-dimethoxybenzyl)-1H-1,2,4-triazol-1-yl)-3-((5-(piperazin-1-yl)pyrazin-2-yl)methyl)pyrimidin-4(3H)-one]	37 nM

More lines, in order of falling Ki, values ahead:

Ki	Structure (SMILES)
780 nM	COc1ccc(CNc2nc(Cc3ccc(OC)c(OC)c3)n(-c3ccccn3)n2)cc1 [1-13, 5-(3,4-dimethoxybenzyl)-N-(4-methoxybenzyl)-1-(pyridin-2-yl)-1H-1,2,4-triazol-3-amine]
650 nM	COc1ccc(Cc2nc(N)nn2-c2cc(=O)n(Cc3cn4ccccc4n3)cn2)cc1OC [1-55, 6-(3-amino-5-(3,4-dimethoxybenzyl)-1H-1,2,4-triazol-1-yl)-3-(imidazo[1,2-a]pyridin-2-ylmethyl)pyrimidin-4(3H)-one]
570 nM	COc1ccc(Cc2nc(N)nn2-c2cc(OCc3cncc(N4CCNCC4)n3)ncn2)cc1OC [1-45, 5-(3,4-dimethoxybenzyl)-1-(6-((6-(piperazin-1-yl)pyrazin-2-yl)methoxy)pyrimidin-4-yl)-1H-1,2,4-triazol-3-amine]
550 nM	COc1ccc(COc2cc(-n3nc(N)nc3Cc3ccc(OC)c(OC)c3)ncn2)cc1 [1-36, 5-(3,4-dimethoxybenzyl)-1-(6-(4-methoxybenzyloxy)pyrimidin-4-yl)-1H-1,2,4-triazol-3-amine]
540 nM	COc1ccc(Cc2nc(N)nn2-c2cc(=O)n(Cc3ccc(-c4ccncc4)cc3)cn2)cc1OC [1-56, 6-(3-amino-5-(3,4-dimethoxybenzyl)-1H-1,2,4-triazol-1-yl)-3-(4-(pyridin-4-yl)benzyl)pyrimidin-4(3H)-one]
270 nM	COc1ccc(Cc2nc(N)nn2-c2cc(OCc3ccc(-c4ccncc4)cc3)ncn2)cc1OC [1-42, 5-(3,4-dimethoxybenzyl)-1-(6-(4-(pyridin-4-yl)benzyloxy)pyrimidin-4-yl)-1H-1,2,4-triazol-3-amine]
250 nM	COc1ccc(Cc2nc(N)nn2-c2ccccn2)cc1OC [1-14, 5-(3,4-dimethoxybenzyl)-1-(pyridin-2-yl)-1H-1,2,4-triazol-3-amine]
180 nM	COc1ccc(Cc2nc(N)nn2-c2cc(OCc3cn4ccccc4n3)ncn2)cc1OC [1-41, 5-(3,4-dimethoxybenzyl)-1-(6-(imidazo[1,2-a]pyridin-2-ylmethoxy)pyrimidin-4-yl)-1H-1,2,4-triazol-3-amine]
153 nM	COc1ccc(Cc2nc(N)nn2-c2ccc(Cl)c(Cl)c2)cc1OC [1-16, 1-(3,4-dichlorophenyl)-5-(3,4-dimethoxybenzyl)-1H-1,2,4-triazol-3-amine]
110 nM	COc1ccc(Cc2nc(N)nn2-c2cc(=O)n(CCN3CCNC3=O)cn2)cc1OC [1-57, 6-(3-amino-5-(3,4-dimethoxybenzyl)-1H-1,2,4-triazol-1-yl)-3-(2-(2-oxoimidazolidin-1-yl)ethyl)pyrimidin-4(3H)-one]
101 nM	COc1ccc(Cc2nc(N)nn2-c2cc(C)cc(C)c2)cc1OC [1-17, 5-(3,4-dimethoxybenzyl)-1-(3,5-dimethylphenyl)-1H-1,2,4-triazol-3-amine]
54 nM	COc1ccc(Cc2nc(N)nn2-c2cc(OCc3ccc4ccccc4c3)ncn2)cc1OC [1-38, 5-(3,4-dimethoxybenzyl)-1-(6-(naphthalen-2-ylmethoxy)pyrimidin-4-yl)-1H-1,2,4-triazol-3-amine]
5.6 nM	COc1ccc(Cc2nc(N)nn2-c2cc(OCC3(c4ccccc4)CC3(F)F)ncn2)cc1OC (stereo not drawn) [1-46, 1-(6-((2,2-difluoro-1-phenylcyclopropyl)methoxy)pyrimidin-4-yl)-5-(3,4-dimethoxybenzyl)-1H-1,2,4-triazol-3-amine]
